Experimental data as given in patent publication US20260021167A1, “COMPOSITIONS AND METHODS FOR TREATING OR PREVENTING NEURODEGENERATIVE DISEASES” (Delaware State University, priority 2022, published 2026).
“Also recorded” adds a separate entry of the source.

Experiments:
[1] = tested on: phosphorylated Ser-129-α-synuclein; experiment: Immunohistochemistry of phosphorylated Ser-129-α-synuclein in brain sections of PFF-injected mice; assay type: in vivo, mouse
[2] = tested on: SUMO-1 conjugated α-synuclein; experiment: Western blot of SUMO-1 conjugated α-synuclein in α-synuclein IP tissue samples; assay type: in vivo, mouse; settings: PFF-injected mice, vs PFF only
Protocol: A) In Western blots, Momordin reversed the toxicity from PFF injection in reducing phospho-α-synuclein and SENP-1 on α-synuclein in the MB and STR. […] A pathological marker, phosphorylated α-synuclein was increased by PFF injection, which was reversed by Momordin treatment in the MB (F) and the STR (G).
(§1) A mouse model of Parkinson's disease is C57BL/6 male or female mice (50% each) injected with 5 μg of mouse PFF at 12 months old, followed by a treatment below for 6-7 weeks: • 1) without PFF injection, followed by vehicle (control, n=7); • 2) PFF injection, followed by vehicle (PFF only: control, n=8); • 3) PFF injection, followed by daily 10 mg/kg Momordin gavage (n=7-8); • 4) PFF injection, followed by daily 50 mg/kg Momordin gavage (n=7-8).

N27 dopaminergic cells = experiment: Screening of SENP-1 inhibitors (LDH, MTT, ROS, Thioflavin-T) in PFF-induced PD model in vitro; assay type: cell-based, rat; settings: N27 dopaminergic cells after exposure to PFF for 24 hrs
Text: Cell Viability Assay. The MTT assay is a colorimetric assay that is based on the conversion of water-soluble MTT (3-(4,5-dimethylthiazol-2-yl)-2,5-diphenyltetrazolium bromide) into formazan crystal by mitochondrial dehydrogenase enzymes, soluble in 100% DMSO. The resulting solution is purple in color, and the color intensity is proportional to the viable cells for each well in a 96-well plate. A variety of SENP-1 inhibitors, such as SUMO-2 aldehyde, Momordin lc, streptonigrin, hinokiflavone, oleanolic acid and siRNA of SENP-1, were treated in N27 cells after PFF (1 μg/ml) exposure for 24 h. After adding 5 mM MTT dye to cells, the color intensity in MTT assays was measured using a spectrophotometer (SpectraMax M5e, Molecular devices, Dover, USA), at 570 nm with a reference wavelength of 630 nm. The cells were incubated with the MTT reagent (ab211091, Abcam) at 37° C. for 3 h, followed by solubilizing the formazan crystals in solution.
(§2) Cytotoxicity Assay. The lactate dehydrogenase (LDH) is a cytosolic enzyme that is released into the media during cellular stress and increased levels of cytotoxicity. The cytotoxicity assay was measured using reagents from the Pierce LDH Cytotoxicity Assay Kit (88954, Thermo). For the assay, 50 μL of media from each well after PFF exposure, followed by SENP-1 treatment, was put into wells of a new 96-well plate. The LDH reagents were prepared according to the protocol provided, and 50 μL of the LDH reagent was mixed into each well. The total 100 μL of media containing LDH and its reagent were incubated at 37° C. for 30 min, followed by the application of a stop solution. The mixture was analyzed using a spectrophotometer (SpectraMax M5e, Molecular devices) at 490 nm with a reference wavelength of 680 nm.
ROS Levels and Thioflavin-T Assessment. The reactive oxygen species (ROS) is a released byproduct during oxidative stress. On the other hand, thioflavin-T is an assay used to understand the level of protein aggregation that can be detrimental to cell survival. In order to assess the level of oxidative stress, all the SENP-1 inhibitors treated cells were incubated in media containing 5 μg/mL of the ROS reagent CellROX deep red reagent (C10422, Thermo Fisher Scientific) and 25 μg/mL of thioflavin-T reagent (CAS: 2390-54-7, Acros Organics) at 37° C. for 30 min. The cells were then washed 3 times with warm phosphate-buffered saline (PBS) without Ca^2+ or Mg^2+ (137 mM NaCl, 2.7 mM KCl, 4.3 mM Na2HPO4, and 1.47 mM KH2PO4), and several images from each well were collected using EVOS FL Cell Imaging Systems (Invitrogen, MA, USA). […] The intensity of red fluorescence corresponding to ROS levels and green labels corresponding to protein aggregation was analyzed by blinded raters using ImageJ. […]

N27 cells = experiment: Cytotoxicity (LDH) assay after PFF exposure; assay type: cell-based, rat; settings: N27 cells, PFF treatment; compared to PFF only control
Protocol: as §2
In this study, numerous commercially available SENP-1 inhibitors were tested for the recovery effects from preformed fibrils of alpha-synuclein (PFF)-induced PD models in vitro. The screening process includes several SENP-1 inhibitors, including specific SENP-1 inhibitors (e.g., SUMO-2 Aldehyde, Momordin lc, streptonigrin, hinokiflavonem, and siRNAs of SENP-1) and nonspecific SENP-1 inhibitors (e.g., oleanolic acid, gallic acid), in N27 dopaminergic cells after the exposure of PFF for 24 hrs.

[3] = tested on: phosphorylated α-synuclein; experiment: Western blot of phosphorylated α-synuclein in brain tissue extracts of PFF-injected mice; assay type: in vivo, mouse; settings: both doses, vs PFF only
Protocol: as §1
Immunoblot Analyses. A total of three protein extractions were performed. In the first extraction, a gentle RIPA buffer containing the low concentration of detergent (25 mM Tris-HCL, 150 mM NaCl, 1% NP-40, 1% sodium deoxycholate and 0.1% SDS) was added with phosphatase inhibitors (100 μL for 10 mL) and 5 mM EDTA. The mixture was sonicated and centrifuged at 14,000 rpm for 10 min. The supernatant was collected for measuring the levels of phosphorylated α-syn, SENP-1 or SUMO-1 conjugated proteins for different groups. […] The primary antibodies pertaining to each protein analyzed were diluted at 1:1000 (p-Ser-129-α-synuclein, Cell signaling; SENP-1, SAB4501345, EMD) and incubated at 4° C. overnight. […] ImageJ was used to analyze specific bands on each blot and measured against the loading control (β-actin) for normalizing each band intensity.

[4] = both 10 and 50 mg/kg oral, PFF-injected mice, vs PFF only

**Q.** For `CC1(C)CC[C@]2(C(=O)O)CC[C@]3(C)C(=CC[C@@H]4[C@@]5(C)CC[C@H](O[C@@H]6O[C@H](C(=O)O)[C@@H](O)[C@H](O[C@@H]7OC[C@@H](O)[C@H](O)[C@H]7O)[C@H]6O)C(C)(C)[C@@H]5CC[C@]43C)[C@@H]2C1` [Momordin lc], which “accumulation of phosphorylated alpha-synuclein in multiple brain regions” value ([1]; 10 or 50 mg/kg oral for 6-7 weeks, 15-16 month-old mice, 3-4 months after PFF injection) is on record?
**A.** sufficient to prevent the accumulation; also recorded: effective to prevent the accumulation

**Q.** And the “level of phospho-α-synuclein in the SNc (IHC)” value [1, 4]?
**A.** significantly reduced

**Q.** And the “level of phospho-α-synuclein in the striatum (IHC)” value [1, 4]?
**A.** significantly reduced

**Q.** And the “SUMO-1 conjugated α-synuclein in the MB (α-synuclein IP)” value ([2]; midbrain)?
**A.** increase in SUMO-1 conjugated α-synuclein

**Q.** And the “SUMO-1 conjugated α-synuclein in the STR (α-synuclein IP)” value ([2]; striatum)?
**A.** increase in SUMO-1 conjugated α-synuclein

**Q.** What about the “efficacy in preventing protein aggregation-mediated damage and reversing PFF-induced damage (LDH, MTT, ROS, Thioflavin-T assays)” value (N27 dopaminergic cells) of the same molecule?
**A.** clearly efficacious

**Q.** And the “cytotoxicity derived from PFF (LDH assay)” value (N27 cells)?
**A.** significantly reduced the cytotoxicity

**Q.** What about the “phosphorylated α-synuclein in the MB (Western blot, tissue extracts)” value ([3]; midbrain) of the same molecule?
**A.** reversed

**Q.** And the “phosphorylated α-synuclein in the STR (Western blot, tissue extracts)” value ([3]; striatum)?
**A.** reversed
